Holding throughout (experiment): growth inhibition of wild-type GFP E. coli, dose response, h34 mutant RFP, cherry-pick (AID 977624)
Assay [1] concerns E. coli mixed culture (wild-type GFP + h34 RFP) total growth, OD600, 24 h. As to conditions: E. coli mixed culture (wild-type GFP + h34 RFP), 24 h; measured here: total OD600 growth.
Assay [2] concerns E. coli wild-type GFP strain growth, fluorescence, 24 h.
Assay [3] has as its system E. coli h34 humanized ribosome mutant RFP strain growth, fluorescence, 24 h.

Inconclusive results are not listed. Calls of active or inactive are those of the source.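 How the source made its calls: active means compound lowering the normal-ribosome reporter at least twice as much as the humanized-ribosome reporter, growth loss under a set limit; inconclusive means no clear call, values can overlap the other calls; inactive means the rest.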

For `Cc1cc(NC(=O)CN2CCN(c3cccc(Cl)c3)CC2)no1`, the values for the concentration at half-maximal activity (AC50) in assay [1] and in assay [2] were 29.5 µM and > 100 µM (inactive), respectively.
The like results for `COc1ccc(OC2C(=O)N(Cc3ccc4c(c3)OCO4)C2c2cccs2)cc1` (centres undefined) were, in that order, greater than 100 µM and > 100 µM (inactive).
In the same order, the values of `Cc1ccsc1C(=O)C1CCCN(Cc2cc(F)ccc2-n2cccn2)C1` (centres undefined) are greater than 100 µM and > 100 µM (inactive).
For `O=C(c1ccc2c(c1)CCN2S(=O)(=O)c1ccccc1)N1CCN(c2ccccc2)CC1`, the AC50 in assay [1] was greater than 100 µM.
For the compound `COc1ccc(CCCc2nc3ccccc3[nH]2)cc1`, the values for the AC50 in assay [1] and in assay [2] were greater than 100 µM and > 100 µM (inactive), respectively.
`Cc1noc(C)c1S(=O)(=O)N(Cc1ccccc1)C(C)C` showed an AC50 in assay [3] greater than 100 µM.
For the compound `CCCC(=O)Nc1sc2c(c1C(=O)Nc1ccccn1)CCCC2`, the AC50 in assay [3] was greater than 100 µM.
Same read-out and setting: as for `Cc1cccc(N2CCN(Cc3nc(-c4ccc(F)cc4F)oc3C)CC2)n1`, the figure is 3.83 µM.
Regarding `CCOC(=O)c1cc(-c2ccc(OC)cc2)n[nH]1`, the AC50 in assay [1] is greater than 100 µM.
`O=C(Nc1ccc(F)cc1)N1CCCCN2[C@@H](CO)[C@H](c3ccc(-c4ccncc4)cc3)[C@@H]2C1`: the AC50 in assay [1] is greater than 100 µM; in assay [2], > 100 µM (inactive).
In assay [3], `COCC#Cc1ccc2c(c1)O[C@H](CN(C)C(=O)c1ccccc1)[C@@H](C)CN([C@H](C)CO)S2(=O)=O` displayed an AC50 greater than 100 µM.
Take `O=C(Nc1cccc(Cl)c1)N1C[C@@H]2[C@H](c3ccccc31)[C@H](CO)N2Cc1ccncc1`: in assay [1], the AC50 was greater than 100 µM.
Still for that read-out and setting: as for `COc1ccccc1NC(=O)CSc1nccn1Cc1ccc(F)cc1`, the figure is greater than 100 µM.
For `CC(C)(C)c1ccc(-c2noc(CCC(=O)NCc3ccco3)n2)cc1`, the AC50 in assay [3] amounted to 2.76 µM.
Regarding `COc1ccccc1-c1nnc(C2CCN(S(=O)(=O)c3ccccc3[N+](=O)[O-])CC2)o1`, the AC50 was greater than 100 µM in assay [1] and > 100 µM (inactive) in assay [2].
In the same order, the values of `Cc1cc(C)cc(NC(=O)c2cccc(NC(=O)c3ccco3)c2)c1` are greater than 100 µM and > 100 µM (inactive).
In the same order, the values of `Cn1nc(C(=O)Nc2cccc(S(=O)(=O)N3CCCCC3)c2)c2ccccc2c1=O` are greater than 100 µM and > 100 µM (inactive).
The like results for `COc1cc(C(N)=O)cc(Br)c1OCc1ccccc1` were, in that order, greater than 100 µM and > 100 µM (inactive).
Consider `O=C(c1cnc(Cc2c[nH]c3ccccc23)c(I)c1)N1CCCCC1`, for which the figures for the AC50 in assay [1] and in assay [2] were greater than 100 µM and > 100 µM (inactive), respectively.
The compound `COc1ccc(NC(=O)c2cccs2)cc1C(=O)N1CCN(c2ccccc2)CC1` had a half-maximal activity concentration (AC50) in assay [3] greater than 100 µM.
Turning to `c1ccc(CN2CCN(C3CCCSc4ccccc43)CC2)cc1` (centres undefined), the AC50 in assay [1] is 50.3 µM; in assay [2], > 100 µM (inactive).
`CO[C@@H]1CN(C)C(=O)c2cc(NC(=O)C3CCCC3)ccc2OC[C@@H](C)N(C(=O)Nc2ccc(C(F)(F)F)cc2)C[C@H]1C`: in assay [1], the half-maximal activity concentration (AC50) was greater than 100 µM.
In the case of `CN(CCOc1ccccc1)C(=O)c1ccc(OC2CCN(C(=O)C3CC3)CC2)cc1`, the half-maximal activity concentration (AC50) was greater than 100 µM in assay [1] and > 100 µM (inactive) in assay [2].
Compound `C=CCN(c1ccccc1)S(=O)(=O)c1cccc2cccnc12` gave an AC50 in assay [3] of 4.71 µM.
For the compound `CN1CCN(C(=O)C[C@@H]2CC[C@@H]3[C@H](COC[C@H](O)CN3C(=O)Nc3ccc(Cl)cc3)O2)CC1`, the AC50 in assay [1] is greater than 100 µM; in assay [2], > 100 µM (inactive).
For the compound `CCCCNc1ccc2c(c1)OC[C@@H](Cc1ccccc1)NS2(=O)=O`, the AC50 is 44.4 µM in assay [1] and > 100 µM (inactive) in assay [2].
With `Cc1sc2ncnc(N3CCCC(C)C3)c2c1C` (centres undefined), the AC50 in assay [1] is greater than 100 µM; in assay [2] it was > 100 µM (inactive).
Regarding `CCOc1ccc(CCNC(=O)CCn2ccc3cc(S(=O)(=O)N4CCCC4)ccc32)cc1`, the half-maximal activity concentration (AC50) in assay [1] is greater than 100 µM.
Consider `Cc1ccccc1NS(=O)(=O)c1cc(C(=O)NCCC2=CCCCC2)ccc1C`, for which the AC50 in assay [3] is greater than 100 µM.
`CCSc1nc2ccccc2c(=O)n1CCc1ccc(OC)c(OC)c1`: the AC50 in assay [1] is greater than 100 µM.
Consider `CCOC(=O)c1nc(C)sc1-c1ccnn1S(=O)(=O)c1cccc(Cl)c1`, for which the values for the AC50 in assay [1] and in assay [2] were 52.2 µM and > 100 µM (inactive), respectively.
The like results for `CC(=O)N1CCN(c2cc(N3CCCC3)c(F)cc2[N+](=O)[O-])CC1` were, in that order, greater than 100 µM and > 100 µM (inactive).
`COC(=O)c1cc(S(=O)(=O)NCc2ccc3c(c2)OCO3)cn1C` yielded an AC50 in assay [3] of 52.4 µM.
In the case of `Clc1ccc2nc(CN3CCCc4ccccc43)cn2c1`, the AC50 in assay [1] was 36.1 µM; in assay [2], > 100 µM (inactive).
In the same order, the values of `O=C(Cc1c(Cl)cccc1Cl)Nc1cccc(S(=O)(=O)N2CCOCC2)c1` are 48.6 µM and > 100 µM (inactive).
`C[C@@H]1CCCCO[C@@H](CN(C)C(=O)c2ccccc2)[C@H](C)CN([C@@H](C)CO)C(=O)c2cc(NC(=O)c3ccccc3)ccc2O1`: the AC50 in assay [1] was greater than 100 µM; in assay [2] it was > 100 µM (inactive).
In the case of `CC(=O)Nc1cccc(NC(=O)CSc2ccc(-c3cccnc3)nn2)c1`, the AC50 in assay [1] is greater than 100 µM.
For the compound `CS(=O)(=O)Nc1ccccc1C(=O)NCCSc1ccccc1`, the AC50 in assay [3] worked out at 51.2 µM.
Regarding `COc1cccc(N2CCN(c3ccc(S(=O)(=O)N4CCN(C)CC4)cc3[N+](=O)[O-])CC2)c1`, the AC50 in assay [1] is greater than 100 µM; in assay [2], > 100 µM (inactive).
As to `CC1CCN(c2ccc3nnc(CCC(=O)Nc4cccc(F)c4)n3n2)CC1`, the AC50 in assay [1] is greater than 100 µM.
On to `Cc1ccc(C2(c3noc(CN(C)Cc4cccnc4)n3)CCCC2)cc1`, for which the AC50 in assay [1] was greater than 100 µM; in assay [2], > 100 µM (inactive).
Take `CC(=O)c1cccc(NC(=O)COC(=O)CCC(=O)c2ccc(F)cc2)c1`: the half-maximal activity concentration (AC50) in assay [1] was greater than 100 µM.
As to `Cc1ccc(Cl)cc1N1CCN(C(=O)c2ccc3nc[nH]c3c2)CC1`, the AC50 in assay [1] is greater than 100 µM; in assay [2] it was > 100 µM (inactive).
Turning to `O=C1c2ccccc2NC(c2ccc(-c3cccc([N+](=O)[O-])c3)o2)N1O` (centres undefined), the AC50 in assay [1] was greater than 100 µM.
For `O=C(Nc1ccncc1)c1ccc(S(=O)(=O)Nc2ccccc2)cc1`, in assay [3], the AC50 amounted to 46.5 µM.
`O=C(O)c1cccnc1SCc1ccccc1Cl`: the results for the AC50 in assay [1] and in assay [2] were greater than 100 µM and > 100 µM (inactive), respectively.
As for `O=C(Nc1cc(S(=O)(=O)N2CCOCC2)ccc1N1CCOCC1)c1ccc([N+](=O)[O-])s1`, the half-maximal activity concentration (AC50) in assay [1] was greater than 100 µM.
Consider `CCc1ccc(C(=O)Nc2cccnc2Oc2ccc(Cl)cc2)cc1`, for which the results for the AC50 in assay [1] and in assay [2] were greater than 100 µM and > 100 µM (inactive), respectively.
On to `O=C1c2cccc(OCC(=O)N3CCCc4ccccc43)c2CCN1Cc1cccnc1`, for which the values for the AC50 in assay [1] and in assay [2] were greater than 100 µM and > 100 µM (inactive), respectively.
As for `Cc1cccc(OCCC(=O)Nc2ccc(F)c(F)c2)c1`, the AC50 in assay [1] was greater than 100 µM.
On to `C=CCn1c(SCC(=O)Nc2ccc3c(c2)OCCO3)nnc1-c1ccco1`, for which, in assay [1], the AC50 is greater than 100 µM.
In the case of `O=C(CSc1ccccc1)Nc1cccc(NC(=O)c2ccco2)c1`, the AC50 was greater than 100 µM in assay [1] and > 100 µM (inactive) in assay [2].
For `COc1ccc(-c2nc(NC(C)=O)sc2-c2ccccc2)cc1`, the concentration at half-maximal activity (AC50) in assay [1] was greater than 100 µM; in assay [2] it was > 100 µM (inactive).
In the same order, the values of `O=C(Nc1cccc(Oc2ccc3c(c2)C(=O)NC3=O)c1)c1cccs1` are greater than 100 µM and > 100 µM (inactive).
For the compound `Cc1nc(SCC(=O)Nc2ccc3c(c2)OCCO3)nc(C)c1C`, the AC50 in assay [1] was greater than 100 µM.
Still for that read-out and setting: as for `CN(C)Cc1nc2ccccc2c(=O)n1Cc1nc(-c2cccc([N+](=O)[O-])c2)cs1`, the figure is greater than 100 µM.
Regarding `O=c1[nH]c(C2CCN(S(=O)(=O)c3ccc4c(c3)OCCO4)CC2)nc2c1nnn2Cc1ccccc1F`, the half-maximal activity concentration (AC50) is greater than 100 µM in assay [1] and > 100 µM (inactive) in assay [2].
In the same order, the values of `O=S(=O)(c1ccccc1)N1CC[C@@H]2[C@H](CO)Nc3ccc(Br)cc3[C@@H]21` are greater than 100 µM and > 100 µM (inactive).
`CC(=O)Nc1cccc(-c2ccnc3c2CC(C(=O)Nc2ccc4c(c2)OCO4)O3)c1` (centres undefined): the AC50 in assay [1] was greater than 100 µM.
`CCOC(=O)c1c(C)[nH]c(C)c1S(=O)(=O)NCCN1CCN(c2ccccc2F)CC1`: the AC50 in assay [1] was greater than 100 µM.
In the case of `O=C(O)c1cc(-c2ccc(Cl)s2)nc2ccccc12`, the AC50 in assay [1] was greater than 100 µM; in assay [2] it was > 100 µM (inactive).
In the case of `C=CCN(CC(O)c1cccc([N+](=O)[O-])c1)C(C)CCc1ccccc1` (centres undefined), in assay [1], the AC50 was greater than 100 µM.
Consider `c1ccc(-n2c(SCc3nc(-c4cccs4)no3)nnc2-c2ccco2)cc1`, for which the AC50 was greater than 100 µM in assay [1] and > 100 µM (inactive) in assay [2].
In the case of `Cc1noc(C)c1NC(=O)N(C)C[C@H]1OCCCC[C@@H](C)Oc2ccc(NC(=O)Nc3cccc4ccccc34)cc2C(=O)N([C@@H](C)CO)C[C@H]1C`, the AC50 in assay [1] was greater than 100 µM.
On the same count and under the same terms, as for `CCCN(Cc1ccco1)S(=O)(=O)c1ccc(OC)c(OC)c1`, the figure is greater than 100 µM.
Regarding `O=C1NC(CCc2ccccc2)C(=O)N1Cc1cccc2ccccc12` (centres undefined), the AC50 in assay [1] was greater than 100 µM; in assay [2], > 100 µM (inactive).
For the compound `Cc1cccc(-c2ccc([C@H]3[C@H](CO)N4CCCCN(S(=O)(=O)c5ccccc5C)C[C@@H]34)cc2)c1`, in assay [1], the AC50 was greater than 52 µM.
`O=C(CC1C(=O)NCCN1CC1CCCCC1)NCc1ccc(F)cc1F` (centres undefined): in assay [1], the AC50 was greater than 100 µM.
For `Cc1ccccc1COc1ccc(-c2nn[nH]n2)cc1`, the AC50 in assay [1] was greater than 100 µM.
With `N#Cc1cccc(-c2ccc3c(c2)[C@H]2[C@H](CCN2C(=O)c2ccccc2F)[C@H](CO)N3)c1`, the concentration at half-maximal activity (AC50) is greater than 100 µM in assay [1] and > 100 µM (inactive) in assay [2].
For `COc1ccc(NC(=O)Nc2cccc3c2O[C@H](CN(C)S(=O)(=O)c2ccc(Cl)cc2)[C@H](C)CN([C@@H](C)CO)C3=O)cc1`, the AC50 was greater than 100 µM in assay [1] and > 52 µM (inactive) in assay [2].
In the case of `CCn1cc(CCC(=O)NCCc2ccccc2)c2ccccc21`, the AC50 in assay [1] was greater than 100 µM.
Take `CC1(C(=O)NS(=O)(=O)c2cccc(C#N)c2)CCN1C(=O)C1(c2ccc(Cl)cc2)CCC1` (centres undefined): the AC50 in assay [2] was > 100 µM (inactive).

What is called AC50 is the concentration at which the activity in the assay is half-maximal.

For the origin of these results see PubChem BioAssay AID977624 (Broad Institute, 2014).
